Laboratory results from publication PMC4826290 (Journal of molecular biology, 2016).

Target: T1, Pif1^238–780 (Saccharomyces cerevisiae, UniProt P07271)
T1 sequence (P07271 238-780): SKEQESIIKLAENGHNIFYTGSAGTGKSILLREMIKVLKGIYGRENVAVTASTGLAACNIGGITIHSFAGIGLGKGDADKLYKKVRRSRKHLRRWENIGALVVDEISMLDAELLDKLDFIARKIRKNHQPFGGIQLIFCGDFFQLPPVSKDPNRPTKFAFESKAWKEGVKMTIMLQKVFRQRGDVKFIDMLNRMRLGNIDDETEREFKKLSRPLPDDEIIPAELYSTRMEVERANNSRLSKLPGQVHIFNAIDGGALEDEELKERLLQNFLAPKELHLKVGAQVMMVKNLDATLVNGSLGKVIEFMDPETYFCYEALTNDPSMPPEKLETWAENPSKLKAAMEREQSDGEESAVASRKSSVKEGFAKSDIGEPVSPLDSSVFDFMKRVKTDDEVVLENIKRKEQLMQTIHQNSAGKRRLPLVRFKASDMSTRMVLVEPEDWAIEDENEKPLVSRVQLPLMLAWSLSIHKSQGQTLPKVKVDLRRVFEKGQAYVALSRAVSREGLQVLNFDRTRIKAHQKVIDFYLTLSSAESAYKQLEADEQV
Experiment: ssDNA-dependent ATPase
Format: biochemical

Question: For `Nc1ncnc2c1ncn2[C@@H]1O[C@H](COP(=O)(O)OP(=O)(O)OP(=O)(O)O)[C@@H](O)[C@H]1O` [ATP], which KATP is on record?
Answer: The KATP was “does not have major effects on the DNA-dependent ATPase activity and the KATP (Figure S1)”.
